According to patent US20110044892A1, “FORMULATION AND METHOD FOR TREATMENT OF TEETH” (priority 2007, published 2011):

Tests used:
[1] = Dentinal tubule plugging by lanthanide salt solutions on etched dentine discs (SEM, backscattered SEM, EDX); parameters: species or system human; conditions: for presence of the lanthanide by EDX: energy dispersive X-ray microanalysis of treated dentine; for blockage or plugging of the tubules (SEM appearance) / deposits on / coverage of the dentinal surface: solution in water; for blockage or plugging of the tubules (SEM appearance) / deposits on / coverage of the dentinal surface / depth of penetration within the tubules: 5 to 10 minutes on disc; for depth of penetration within the tubules: 4% to 5% by weight solution in water; for depth of penetration within the tubules / penetration of / deposits within the tubules (qualitative): SEM; for penetration of / deposits within the tubules (qualitative): in water
Description: We also assessed other lanthanide compounds, as hereinafter discussed.
For each of the lanthanide salts, caries-free surgically-extracted human molar teeth were cleaned of organic material and, after removal of the crown, sectioned mesio-distally to provide one to two 1-mm dentine discs which were used in the experiment immediately. […] A solution containing a respective one of the above-mentioned lanthanide salts in a concentration of 4% to 5% by weight in the solvent was placed on or in contact with the discs respectively for 5 to 10 minutes before rinsing under flowing tap water. These treated discs were dried completely and then split using pliers, this helping to expose the tubular area for observation of depth of penetration. Specimens were then carbon-coated before examination under SEM (scanning electron microscope). The same procedure was used for each of the other lanthanide compounds hereinafter discussed.
When observed in a backscattered electron beam, dense materials appear as high contrast (bright areas) material relative to the background material (tooth structure). Lanthanides in general have greater density compared to the hydroxyapatite present in the tooth. Thus, in a backscattered electron beam, the lanthanides appear as bright areas due to their high density compared to the background.

[2] = pH of solution or formulation; format: physicochemical; conditions: solution as applied to dentin
Description: If the solution applied to the dentin is too acidic, for example, lower than 5.5, it will demineralize and thereby undesirably weaken the dentin. If the solution applied to the dentin is too basic, for example, in excess of 7.5, it will undesirably form a lot of calculus. An ideal pH for the dentin treatment solution is considered to be about 6 to 7, preferably about 6.6 to 7. Such a pH is believed to be important not only to prevent de-mineralization but also to aid in re-mineralization of dentin surfaces. Therefore, in accordance with the present invention, the dentin treatment solution is formulated to have a pH of about 6 to 7, preferably about 6.6 to 7. […] The formulation with the addition of the insoluble oxide forms on the surface of the dentin or other tooth surface a protective coat that keeps the pH constant to maintain the tooth integrity and protect its surface from, for example, routinely used acidic beverages, protection of dental restorations, and microleakage protection (protection from bacterial leakage and leakage associated with restorative materials) as well as for re-mineralization. The insoluble oxide may include other insoluble substances providing a pH of about 6 to 7 in the dentin treatment solution and on the dentin surfaces, for example, amphoteric oxides such as aluminum oxide and zinc oxide. […]

[3] = Description: For the purposes of this specification and the claims, the term “soluble” refers to a characteristic of a salt of dissolving in water (or other solvent in which the salt is placed) to the extent that there is substantially no precipitation or settling out of material.

| SMILES | presence of the lanthanide by EDX [1] | blockage or plugging of the tubules (SEM appearance) [1] | deposits on / coverage of the dentinal surface [1] | pH of solution [2] | depth of penetration within the tubules [1] | penetration of / deposits within the tubules (qualitative) [1] | solubility in water [3] |
| --- | --- | --- | --- | --- | --- | --- | --- |
| O.O.O.O.O.O.O.[Ce+3].[Cl-].[Cl-].[Cl-] [cerium chloride, cerium chloride heptahydrate] | confirmed | substantially complete blockage or plugging of the tubules | cover substantially the dentinal surface |  |  |  |  |
| O.O.O.O.O.O.[Cl-].[Cl-].[Cl-].[Gd+3] [gadolinium chloride, gadolinium chloride hexahydrate] | confirmed | substantially complete blockage or plugging of the tubules | cover substantially the dentinal surface |  |  |  |  |
| O.O.O.O.O.O.O=[N+]([O-])[O-].O=[N+]([O-])[O-].O=[N+]([O-])[O-].[Gd+3] [gadolinium nitrate, gadolinium nitrate hexahydrate] | confirmed | substantially complete blockage or plugging of the tubules | substantially covering the dentinal surface | about 4.3 | up to 5 microns |  |  |
| O=C([O-])[O-].O=C([O-])[O-].O=C([O-])[O-].[La+3].[La+3] [lanthanum carbonate] |  | no plugging observed | no dentin surface deposits were observed |  |  | poor penetration of the tubules |  |
| O.O.O.O.O.O.O.[Cl-].[Cl-].[Cl-].[La+3] [lanthanum chloride, lanthanum chloride heptahydrate] | confirmed | substantially complete blockage or plugging of the tubules | cover some of the surface |  | up to 12 microns |  |  |
| [La+3].[OH-].[OH-].[OH-] [lanthanum hydroxide] |  | no plugging observed | no dentin surface deposits were observed |  |  | poor penetration of the tubules | not being soluble in water |
| O=[N+]([O-])[O-].[K+] [potassium nitrate, reference compound] |  |  | considerable deposits on the surface |  |  | little or no deposits within the tubules |  |
| O=C([O-])C(=O)[O-].[K+].[K+] [potassium oxalate, reference compound] |  | formed crystals that appear to block the tubules | a substantial amount of potassium oxalate was deposited on the dentin surface | about 2 | 3 to 4 microns |  |  |
| O.O.O.O.O.O.[Cl][Sm]([Cl])[Cl] [samarium chloride, samarium chloride hexahydrate] | confirmed | substantially complete blockage or plugging of the tubules | cover substantially the dentinal surface |  |  |  |  |
